Patent US9708318B2, “Bicyclic heterocycles as FGFR4 inhibitors” (Incyte Corporation, priority 2015, dated 2017)
Like-named read-outs stand apart in the source and are kept apart here.

Key:
FGFR1 = FGFR1 (Homo sapiens (Human), UniProt P11362); assay: FGFR Enzymatic Assay (FRET peptide phosphorylation), FGFR1; settings: FGFR1 IC50 (nM)
FGFR3 enzyme = FGFR3 enzyme (Homo sapiens (Human), UniProt P22607); assay: FGFR Enzymatic Assay (FRET peptide phosphorylation), FGFR3; type: biochemical; settings: read-out: FGFR3 IC50
Method: (§1) The inhibitor potency of the exemplified compounds was measured in an enzyme assay that measures peptide phosphorylation using FRET measurements to detect product formation. Inhibitors were serially diluted in DMSO and a volume of 0.5 μL was transferred to the wells of a 384-well plate.
(§2) GraphPad prism3 was used to analyze the data.

FGFR2 = FGFR2 (Homo sapiens (Human), UniProt P21802); assay: FGFR Enzymatic Assay (FRET peptide phosphorylation), FGFR2; type: biochemical
Method: as §1
(§3) The enzymes were purchased from Millipore or Invitrogen.
as §2

FGFR4 = FGFR4 (Homo sapiens (Human), UniProt P22455); assay: FGFR Enzymatic Assay (FRET peptide phosphorylation), FGFR4; type: biochemical
Method: as §1, §3, §2

[1] = pre-incubated for 5 to 10 minutes

FGFR2, sequence (P21802 22-821): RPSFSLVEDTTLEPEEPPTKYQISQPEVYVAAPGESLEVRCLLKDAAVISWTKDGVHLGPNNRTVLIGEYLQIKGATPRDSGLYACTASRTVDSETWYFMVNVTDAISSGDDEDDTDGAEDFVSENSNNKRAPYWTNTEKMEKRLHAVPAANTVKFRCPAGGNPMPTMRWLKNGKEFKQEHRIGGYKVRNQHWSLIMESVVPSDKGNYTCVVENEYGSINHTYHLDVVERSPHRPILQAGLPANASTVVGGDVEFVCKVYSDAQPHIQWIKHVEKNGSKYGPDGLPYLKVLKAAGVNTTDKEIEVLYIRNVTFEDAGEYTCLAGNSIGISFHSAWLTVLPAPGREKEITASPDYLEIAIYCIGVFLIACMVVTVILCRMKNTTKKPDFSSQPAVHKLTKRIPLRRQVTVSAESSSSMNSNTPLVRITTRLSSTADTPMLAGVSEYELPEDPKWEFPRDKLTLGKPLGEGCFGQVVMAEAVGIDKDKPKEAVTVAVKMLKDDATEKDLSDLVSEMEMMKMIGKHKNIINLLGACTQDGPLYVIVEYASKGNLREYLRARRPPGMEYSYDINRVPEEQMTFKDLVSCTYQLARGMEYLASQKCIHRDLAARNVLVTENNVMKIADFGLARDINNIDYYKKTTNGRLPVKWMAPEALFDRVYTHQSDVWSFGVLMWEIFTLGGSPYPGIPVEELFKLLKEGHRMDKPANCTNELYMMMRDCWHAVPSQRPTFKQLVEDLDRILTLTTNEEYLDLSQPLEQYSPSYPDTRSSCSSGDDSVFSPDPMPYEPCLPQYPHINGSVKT
FGFR3 enzyme, sequence (P22607 23-806): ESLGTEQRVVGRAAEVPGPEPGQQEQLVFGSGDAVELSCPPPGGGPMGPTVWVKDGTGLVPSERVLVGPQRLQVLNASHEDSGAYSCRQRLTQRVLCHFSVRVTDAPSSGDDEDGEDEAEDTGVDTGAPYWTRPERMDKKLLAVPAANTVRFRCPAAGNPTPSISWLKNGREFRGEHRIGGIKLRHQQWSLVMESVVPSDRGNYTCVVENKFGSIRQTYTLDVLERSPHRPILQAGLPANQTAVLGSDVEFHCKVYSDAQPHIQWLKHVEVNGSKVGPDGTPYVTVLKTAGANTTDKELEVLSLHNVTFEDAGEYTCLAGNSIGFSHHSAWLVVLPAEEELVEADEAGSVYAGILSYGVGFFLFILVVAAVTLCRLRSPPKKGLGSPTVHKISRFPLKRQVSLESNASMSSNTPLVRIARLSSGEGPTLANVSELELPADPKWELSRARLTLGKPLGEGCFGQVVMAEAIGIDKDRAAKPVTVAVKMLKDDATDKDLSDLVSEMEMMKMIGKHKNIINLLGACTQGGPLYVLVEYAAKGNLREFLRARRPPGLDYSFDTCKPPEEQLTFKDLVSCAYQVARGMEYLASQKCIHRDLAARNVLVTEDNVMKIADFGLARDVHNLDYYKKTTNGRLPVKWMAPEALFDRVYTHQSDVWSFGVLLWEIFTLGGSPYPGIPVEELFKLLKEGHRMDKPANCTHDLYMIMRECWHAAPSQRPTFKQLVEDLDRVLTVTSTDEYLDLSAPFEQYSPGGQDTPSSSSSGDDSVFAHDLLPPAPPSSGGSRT
FGFR4, sequence (P22455 22-802): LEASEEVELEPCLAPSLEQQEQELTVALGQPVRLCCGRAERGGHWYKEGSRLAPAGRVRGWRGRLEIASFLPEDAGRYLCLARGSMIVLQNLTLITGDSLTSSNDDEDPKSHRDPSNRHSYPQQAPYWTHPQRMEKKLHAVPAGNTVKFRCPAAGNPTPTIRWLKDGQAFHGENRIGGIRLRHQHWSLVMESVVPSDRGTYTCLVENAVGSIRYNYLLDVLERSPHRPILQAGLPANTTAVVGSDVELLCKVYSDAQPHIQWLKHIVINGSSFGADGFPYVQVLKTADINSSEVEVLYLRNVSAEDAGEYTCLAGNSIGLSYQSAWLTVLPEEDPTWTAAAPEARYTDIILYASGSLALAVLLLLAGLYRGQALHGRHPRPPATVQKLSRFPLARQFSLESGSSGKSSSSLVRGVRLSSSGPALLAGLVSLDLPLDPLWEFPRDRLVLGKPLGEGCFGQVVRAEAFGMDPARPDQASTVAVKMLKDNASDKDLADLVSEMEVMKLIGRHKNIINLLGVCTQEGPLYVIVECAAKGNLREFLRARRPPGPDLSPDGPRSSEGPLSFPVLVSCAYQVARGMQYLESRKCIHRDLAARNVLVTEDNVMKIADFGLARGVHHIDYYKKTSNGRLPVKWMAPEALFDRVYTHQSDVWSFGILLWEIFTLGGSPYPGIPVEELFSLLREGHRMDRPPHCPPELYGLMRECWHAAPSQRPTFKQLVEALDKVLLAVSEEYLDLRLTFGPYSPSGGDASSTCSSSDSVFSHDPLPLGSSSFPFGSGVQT
FGFR1, sequence (P11362 22-822): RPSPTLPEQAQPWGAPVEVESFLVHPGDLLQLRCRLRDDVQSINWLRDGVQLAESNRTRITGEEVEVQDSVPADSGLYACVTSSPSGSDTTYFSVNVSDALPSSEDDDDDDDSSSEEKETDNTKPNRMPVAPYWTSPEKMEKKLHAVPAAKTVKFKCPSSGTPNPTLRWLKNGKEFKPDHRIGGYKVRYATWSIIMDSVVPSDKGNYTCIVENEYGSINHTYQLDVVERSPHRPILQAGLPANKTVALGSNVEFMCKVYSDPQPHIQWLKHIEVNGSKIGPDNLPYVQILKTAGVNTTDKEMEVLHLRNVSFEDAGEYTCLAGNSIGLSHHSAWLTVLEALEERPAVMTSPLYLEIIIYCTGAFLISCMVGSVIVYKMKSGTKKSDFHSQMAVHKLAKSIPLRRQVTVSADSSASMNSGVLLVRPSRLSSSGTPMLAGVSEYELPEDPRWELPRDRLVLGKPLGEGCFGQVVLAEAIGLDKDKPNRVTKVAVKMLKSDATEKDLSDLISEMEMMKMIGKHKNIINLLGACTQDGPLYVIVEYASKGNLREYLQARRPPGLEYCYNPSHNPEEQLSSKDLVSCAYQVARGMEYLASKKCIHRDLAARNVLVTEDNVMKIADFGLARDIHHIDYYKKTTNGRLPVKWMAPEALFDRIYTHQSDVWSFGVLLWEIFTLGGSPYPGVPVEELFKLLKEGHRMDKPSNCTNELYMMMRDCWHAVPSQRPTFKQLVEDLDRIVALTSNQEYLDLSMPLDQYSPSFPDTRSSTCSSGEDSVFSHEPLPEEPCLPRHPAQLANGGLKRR

IC50 (FGFR1; pre-incubated for 4 hours)	IC50 (FGFR3 enzyme; pre-incubated for 4 hours)	IC50 (FGFR2; pre-incubated for 4 hours)	IC50 (FGFR3 enzyme; [1])	IC50 (FGFR2; [1])	Structure (SMILES)	further results
10 to 30 nM	–	–	–	–	COc1cc(OC)c(F)c(N2Cc3cnc(-c4cnn(C5CN(S(C)(=O)=O)C5)c4)cc3C3(CC3)C2=O)c1F [Example 55, 2′-(2,6-difluoro-3,5-dimethoxyphenyl)-6′-(1-(1-(methylsulfonyl)azetidin-3-yl)-1H-pyrazol-4-yl)-1′H-spiro[cyclopropane-1,4′-[2,7]naphthyridin]-3′(2′H)-one]	–
[…]	< 10 nM	< 10 nM	–	–	COc1cc(OC)c(F)c(N2Cc3cnc(-c4cnn(C5(C#N)CCC5)c4C)cc3C3(CC3)C2=O)c1F [Example 149, 1-(4-(2′-(2,6-difluoro-3,5-dimethoxyphenyl)-3′-oxo-2′,3′-dihydro-1′H-spiro[cyclopropane-1,4′-[2,7]naphthyridine]-6′-yl)-5-methyl-1H-pyrazol-1-yl)cyclobutanecarbonitrile]	–
–	–	–	10 to 30 nM	10 to 30 nM	COc1cc(OC)c(F)c(N2Cc3cnc(-c4cnn(C)c4)cc3N(c3ccc(C#N)cc3)C2=O)c1F [Example 144, 4-(3-(2,6-difluoro-3,5-dimethoxyphenyl)-7-(1-methyl-1H-pyrazol-4-yl)-2-oxo-3,4-dihydropyrido[4,3-d]pyrimidin-1(2H)-yl)benzonitrile]	–
–	–	–	10 to 30 nM	30 to 200 nM	COc1cc(OC)c(F)c(N2Cc3cnc(-c4ccn(C)n4)cc3N(c3ccc(C#N)cc3)C2=O)c1F [Example 142, 4-(3-(2,6-difluoro-3,5-dimethoxyphenyl)-7-(1-methyl-1H-pyrazol-3-yl)-2-oxo-3,4-dihydropyrido[4,3-d]pyrimidin-1(2H)-yl)benzonitrile]	–
–	10 to 30 nM	30 to 200 nM	30 to 200 nM	10 to 30 nM	COc1cc(OC)c(F)c(N2Cc3cnc(-c4cccnc4)cc3C3(CC3)C2=O)c1F [Example 9, 2′-(2,6-difluoro-3,5-dimethoxyphenyl)-6′-(pyridin-3-yl)-1′H-spiro[cyclopropane-1,4′-[2,7]naphthyridin]-3′(2′H)-one]	IC50 (FGFR4; [1]): 10 to 30 nM; IC50 (FGFR4; pre-incubated for 4 hours): 10 to 30 nM
–	< 10 nM	–	–	–	COc1cc(OC)c(F)c(N2Cc3cnc(-c4cn(C)nc4C)cc3N(c3cccc(C#N)c3)C2=O)c1F [Example 60, 3-(3-(2,6-difluoro-3,5-dimethoxyphenyl)-7-(1,3-dimethyl-1H-pyrazol-4-yl)-2-oxo-3,4-dihydropyrido[4,3-d]pyrimidin-1(2H)-yl)benzonitrile]	–
30 to 200 nM	–	–	–	–	CCN1C(=O)N(c2c(F)c(OC)cc(OC)c2F)Cc2cnc(-c3cn(Cc4cccnc4)nc3C)cc21 [Example 50, 3-(2,6-difluoro-3,5-dimethoxyphenyl)-1-ethyl-7-(3-methyl-1-(pyridin-3-ylmethyl)-1H-pyrazol-4-yl)-3,4-dihydropyrido[4,3-d]pyrimidin-2(1H)-one]	–
–	30 to 200 nM	30 to 200 nM	30 to 200 nM	30 to 200 nM	COc1cc(OC)c(F)c(N2Cc3cnc(-c4cncc(NS(C)(=O)=O)c4)cc3C3(CC3)C2=O)c1F [Example 15, N-(5-(2′-(2,6-difluoro-3,5-dimethoxyphenyl)-3′-oxo-2′,3′-dihydro-1′H-spiro[cyclopropane-1,4′-[2,7]naphthyridine]-6′-yl)pyridin-3-yl)methanesulfonamide]	IC50 (FGFR4; [1]): < 10 nM; IC50 (FGFR4; pre-incubated for 4 hours): < 10 nM
–	–	–	10 to 30 nM	10 to 30 nM	COc1cc(OC)c(F)c(N2Cc3cnc(-c4cn(C)nc4C)cc3N(c3ccc4c(c3)C(=O)N(C)C4)C2=O)c1F [Example 120, 3-(2,6-difluoro-3,5-dimethoxyphenyl)-7-(1,3-dimethyl-1H-pyrazol-4-yl)-1-(2-methyl-3-oxoisoindolin-5-yl)-3,4-dihydropyrido[4,3-d]pyrimidin-2(1H)-one]	–
